Laboratory results from PMC3077598 (The Journal of Biological Chemistry, 2011).

Assays:
TASK-1 [1] = target: TASK-1 (Homo sapiens, UniProt O14649, T199A); assay: two-electrode voltage clamp, Xenopus oocytes; format: cell-based; details: read-out: % inhibition at 400 nM
TASK-1 [2] = target: TASK-1 (Homo sapiens, UniProt O14649, T93A); assay: two-electrode voltage clamp, Xenopus oocytes; format: cell-based; details: read-out: % inhibition at 400 nM
Chain of TASK-1 (Homo sapiens, UniProt O14649, T93A) (O14649 whole entry T93A): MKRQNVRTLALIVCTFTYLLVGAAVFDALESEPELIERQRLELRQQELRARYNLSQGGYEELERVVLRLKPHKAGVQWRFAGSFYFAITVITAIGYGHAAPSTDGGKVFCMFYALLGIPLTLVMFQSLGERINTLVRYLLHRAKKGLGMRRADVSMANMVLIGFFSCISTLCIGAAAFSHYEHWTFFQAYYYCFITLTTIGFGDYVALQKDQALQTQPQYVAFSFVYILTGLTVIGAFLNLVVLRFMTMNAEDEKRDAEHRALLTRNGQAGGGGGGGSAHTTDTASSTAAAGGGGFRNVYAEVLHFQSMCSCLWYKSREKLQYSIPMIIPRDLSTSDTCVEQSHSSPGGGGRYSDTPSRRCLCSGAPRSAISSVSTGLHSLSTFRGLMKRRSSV

Chain of TASK-1 (Homo sapiens, UniProt O14649, T199A) (O14649 whole entry T199A): as the sequence (O14649 whole entry T93A) above, with A93T, T199A counted along it

inhibition at 0.4 µM (TASK-1 [1]): 36.4 ± 6.4% | inhibition at 0.4 µM (TASK-1 [2]): 26.4 ± 6.4%
Compound: COc1ccc(CC(=O)NCc2ccccc2-c2ccccc2C(=O)NCc2ccc(F)cc2F)cc1 [A1899]
